Two compounds from patent US11992499B2, “Quinoline derivatives for use in the treatment of inflammation diseases” (ABIVAX, priority 2018, dated 2024) can be followed below.

For assay [1], the system named is STAM model of non-alcoholic steatohepatitis. Kind of assay: STAM model of NASH: F4/80 immunostaining. The conditions noted are these: for F4/80-positive area (mean ± SD): n = 8. In kind it is in vivo, mice. As for the experimental part:
(§1) NASH was induced in 48 male mice by a single subcutaneous injection of 200 μg streptozotocin (STZ, Sigma-Aldrich, USA) solution 2 days after birth and feeding with high fat diet (HFD, 57 kcal % fat, Cat #HFD32, CLEA Japan, Inc., Japan) after 4 weeks of age.
(§2) Compound A was administered at 3 dose levels of 10, 20 and 40 mg/kg once daily from 6 to 9 weeks of age. Compound B was administered at a dose of 40 mg/kg once daily from 6 to 9 weeks of age. Telmisartan was administered at a dose of 10 mg/kg once daily from 6 to 9 weeks of age.

Assay [2] deals with monocrotaline model of pulmonary arterial hypertension. Description: Rat monocrotaline model of pulmonary arterial hypertension: mean pulmonary pressure. The conditions noted are these: for Effect on pulmonary pressure: pulmonary hypertension induced by monocrotaline; for Mean Pulmonary Pressure: MCT. In kind it is in vivo. As for the experimental part:
• 1. The experimental trace to be analyzed is opened in Clampfit. • 2. Right atria pressure is recorded for 1 minute • 3. PAP recorded continuously for at least 1 minute or until loss of signal, is used to extract the mean, diastolic, and systolic pulmonary pressure. • 4. The systemic arterial pressure (SAP) recorded continuously is used to extract the mean, diastolic and systolic arterial pressure. • 5. At the end of the hemodynamic parameters recording, the right and left ventricle including the septum and the lung lobes is excised to determine wet weights. • 6. Each parameter is compiled for each group and presented in bar graphs with appropriate statistical analysis.
The appropriate amount of monocrotaline is weighed and ⅓ of the correct volume of 1.0N HCl is added and mixed to ensure monocrotaline solubilisation. The solution is then neutralized with ⅓ of the correct volume of 1.0 N NaOH. The pH of the solution is checked with a pH indicator paper/strip or an electronic pH meter and adjusted to neutral as necessary; the final volume is completed with water for injection to obtain a solution of 20 mg/mL. The monocrotaline solution is injected subcutaneously, over the shoulders, into the loose skin over the neck, to each rat at 3 mL/kg of body weight (dose is 60 mg/kg).
Compound A was administered as a suspension in the vehicle. To reach the required concentrations, compound A was grounded to a fine powder, using a mortar and pestle, and then mixed with 20% (final volume) of vehicle A1 until a suspension was achieved. 80% of vehicle A2 was then added to the suspension under magnetic stirring.
The appropriate amount of Sildenafil is weighed and appropriate volume of distillated water is added to obtain suspension at 5 mg/mL. The suspension is mixed with a stir bar for 30-60 minutes until a homogenous suspension is achieved. Care is taken to maintain a uniform suspension (stirring continuously) whilst doses are being drawn up into gavage syringes. One gavage syringe is filled at a time and administered before filling the next syringe. The solutions are stored refrigerated at 2 to 8° C. and protected from light. The expiration date is set at 7 days after preparation.
Animals from Groups 2 to 5 (see Table 13) receive a single subcutaneous injection of monocrotaline (60 mg/kg) solution on Day 0 and returned to their cages. Animals from Group 1 receive one subcutaneous injection vehicle for MCT on Day 0 and returned to their respective cages.
Treatment with the compound A, sildenafil or vehicle is administered as of Day 7 (Groups 2-5) as scheduled and described in Table 13. The Groups 2-4 receive a single dose per day. The reference group 5 receives sildenafil twice a day. Food and water are given ad libitum. Daily observation of the behaviour and general health status of the animals is done. Weekly body weight is taken.
Surgical Instrumentation and Measurement of Hemodynamic and Functional Parameters in Efficacy Study Animals • 1. On the selected day of surgery, rats are anaesthetized with a mixture of 2 to 2.5% isoflurane USP (Abbot Laboratories, Montreal, Canada) in oxygen, and placed on a heating pad to maintain body temperature. • 2. Rats are tracheotomized and immediately ventilated by means of a positive-pressure rodent respirator set at ≈10 ml/kg bodyweight at a frequency of 65-70 strokes/min. • 3. Lead II ECG contact electrodes is placed on the rat to continuously monitor the ECG during the surgical procedure. • 4. A cannula connected to a pressure transducer is inserted into the left femoral artery to measure the arterial blood pressure. • 5. A cannula connected to a pressure transducer is inserted into the right atria through the right jugular vein to measure the right atria pressure. • 6. The heart is exposed through a sternotomy and a 20GA 1.16 in Insyte is introduced into the right ventricle and rapidly hooked up to a saline filled PE-50 catheter connected to a transducer. • 7. […]

Assay [3] relates to STAM model of non-alcoholic steatohepatitis. Kind of assay: STAM model of NASH: plasma ALT. In kind it is in vivo, mice. The conditions noted are these: for Plasma ALT (mean ± SD): n = 8. The method, then:
NASH was induced in 48 male mice by a single subcutaneous injection of 200 μg streptozotocin (STZ, Sigma-Aldrich, USA) solution 2 days after birth and feeding with high fat diet (HFD, 57 kcal % fat, Cat #HFD32, CLEA Japan, Inc., Japan) after 4 weeks of age. Compound A was administered at 3 dose levels of 10, 20 and 40 mg/kg once daily from 6 to 9 weeks of age. Compound B was administered at a dose of 40 mg/kg once daily from 6 to 9 weeks of age. Telmisartan was administered at a dose of 10 mg/kg once daily from 6 to 9 weeks of age. For plasma biochemistry, non-fasting blood was collected in polypropylene tubes with anticoagulant (Novo-Heparin, Mochida Pharmaceutical Co. Ltd., Japan) and centrifuged at 1,000×g for 15 minutes at 4° C. The supernatant was collected and stored at −80° C. until use. Plasma ALT was measured by FUJI DRI-CHEM 7000 (Fujifilm, Japan).

The test system is the same in assay [4]. Description: STAM model of NASH: liver triglyceride content. In kind it is in vivo, mice. The conditions noted are these: n = 8. The method, then:
as §1, §2
Liver total lipid-extracts were obtained by Folch's method (Folch J. et al., J. Biol. Chem. 1957; 226: 497). Liver samples were homogenized in chloroform-methanol (2:1, v/v) and incubated overnight at room temperature. After washing with chloroform-methanol-water (8:4:3, v/v/v), the extracts were evaporated to dryness, and dissolved in isopropanol. Liver triglyceride content was measured by Triglyceride E-test (FUJIFILM Wako Pure Chemical Corporation, Japan).

Where [5] appears, read: 10 mg/kg PO QD, 6-9 wks of age (Compound A low, Telmisartan groups).
[6] abbreviates: 20 mg/kg PO QD (Compound A middle group).
Setting [7] is: 20 mg/kg PO QD, 6-9 wks of age (Compound A middle group).
[8] abbreviates: 40 mg/kg PO QD (Compound A high, Compound B groups).
[9] abbreviates: 40 mg/kg PO QD, 6-9 wks of age (Compound A high, Compound B groups).

The structures appear in SMILES notation. “Also recorded” adds a separate entry of the source.

In the case of `FC(F)(F)Oc1ccc(Nc2ccc3cccc(Cl)c3n2)cc1` [8-Chloro-N-(4-(trifluoromethoxy)phenyl)quinolin-2-amine], the “F4/80-positive area in the liver” value in assay [1] (summary statement, dose not stated) is given as “decreased”. Further, the “Effect on pulmonary pressure” value in assay [2] (female rat) is given as “reduces significantly”.

`FC(F)(F)Oc1ccc(Nc2ccc3cccc(Cl)c3n2)cc1` [Compound A, 8-Chloro-N-(4-(trifluoromethoxy)phenyl)quinolin-2-amine]: the “Plasma ALT level compared with the Vehicle group” value in assay [3] (10 mg/kg PO QD (Compound A low, Telmisartan groups)) is “tended to increase; also recorded: increasing trend”; in assay [3] (setting [6]) it was “tended to increase; also recorded: increasing trend”; in assay [3] (setting [8]), “significant increase”. Moreover, the “Plasma ALT (mean ± SD)” value in assay [3] (setting [5]) is 75 ± 31 U/L; in assay [3] (setting [7]), 91 ± 15 U/L; in assay [3] (setting [9]), 133 ± 100 U/L. Further, the “Liver triglyceride (mean ± SD)” value in assay [4] (setting [5]) is recorded as 64.9 ± 27.6 mg/g liver; in assay [4] (setting [7]) it was 63.1 ± 21.2 mg/g liver; in assay [4] (setting [9]) it was 66.6 ± 25.6 mg/g liver. For the same compound, the “F4/80-positive area (mean ± SD)” value stood at 2.22 ± 0.46% in assay [1] (setting [5]), 1.88 ± 0.62% in assay [1] (setting [7]) and 1.53 ± 0.77% in assay [1] (setting [9]). Moreover, the “F4/80-positive area compared with the Vehicle group” value in assay [1] (setting [6]) was “tended to decrease”; in assay [1] (setting [8]), “significant decrease”. The “Mean Pulmonary Pressure” value in assay [2] (female rat, 70 mg/kg QD gavage Day 7 to Day 28, n = 7) came out at 22.2 mmHg; in assay [2] (female rat, 120 mg/kg QD gavage Day 7 to Day 28, n = 11), 16.9 mmHg. Besides, the entries for the “Effect on pulmonary pressure” value in assay [2] (female rat) and in assay [2] (male rat) were “reduces significantly” and “no effect”, respectively.
